In patent US20250333407A1, “Compounds and Their Use for Treatment of Hemoglobinopathies” (Bristol-Myers Squibb Company, priority 2024, published 2025):

Tests used:
Type in all cases: cell-based
ZBTB7A = target: T1, ZBTB7A (Homo sapiens, UniProt O95365+Q96SW2); experiment: HUDEP-2 ZBTB7A HiBiT degradation assay; details: HiBiT-tagged ZBTB7A degradation in HUDEP-2 cells, 24 hours of treatment; read-out: ZBTB7A EC50
T1 construct: HUDEP-2 cells engineered to express a HiBiT tag in either the WIZ (Widely interspaced zinc finger) or ZBTB7A
T1 sequence (O95365 whole entry): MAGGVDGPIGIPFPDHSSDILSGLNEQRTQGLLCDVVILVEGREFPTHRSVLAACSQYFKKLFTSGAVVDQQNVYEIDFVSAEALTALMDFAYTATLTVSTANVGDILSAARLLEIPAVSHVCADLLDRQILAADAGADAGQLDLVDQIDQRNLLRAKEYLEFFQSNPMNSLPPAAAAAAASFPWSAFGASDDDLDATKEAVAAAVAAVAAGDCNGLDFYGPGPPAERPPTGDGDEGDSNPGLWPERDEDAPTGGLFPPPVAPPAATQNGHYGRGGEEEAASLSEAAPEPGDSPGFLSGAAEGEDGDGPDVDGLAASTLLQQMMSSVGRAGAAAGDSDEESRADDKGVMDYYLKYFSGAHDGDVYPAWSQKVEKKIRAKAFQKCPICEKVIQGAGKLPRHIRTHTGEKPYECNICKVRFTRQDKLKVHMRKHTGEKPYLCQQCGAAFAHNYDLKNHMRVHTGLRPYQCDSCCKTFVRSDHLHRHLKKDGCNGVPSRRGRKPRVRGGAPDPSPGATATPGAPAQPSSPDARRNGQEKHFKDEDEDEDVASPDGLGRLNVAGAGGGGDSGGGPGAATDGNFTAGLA
T1 sequence (Q96SW2 whole entry): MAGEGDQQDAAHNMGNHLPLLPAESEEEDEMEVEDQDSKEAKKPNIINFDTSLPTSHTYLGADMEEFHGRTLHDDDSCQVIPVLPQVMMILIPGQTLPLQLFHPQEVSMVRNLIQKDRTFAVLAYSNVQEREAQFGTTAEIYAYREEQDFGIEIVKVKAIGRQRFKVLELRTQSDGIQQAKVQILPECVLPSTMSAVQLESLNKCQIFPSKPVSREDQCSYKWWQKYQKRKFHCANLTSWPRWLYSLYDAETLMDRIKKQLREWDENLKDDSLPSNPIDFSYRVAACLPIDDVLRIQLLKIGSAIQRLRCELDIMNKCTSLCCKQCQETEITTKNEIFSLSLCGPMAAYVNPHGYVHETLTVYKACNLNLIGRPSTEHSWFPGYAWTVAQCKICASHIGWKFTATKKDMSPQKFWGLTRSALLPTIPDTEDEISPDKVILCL
T1 sequence (Q16531 whole entry partner): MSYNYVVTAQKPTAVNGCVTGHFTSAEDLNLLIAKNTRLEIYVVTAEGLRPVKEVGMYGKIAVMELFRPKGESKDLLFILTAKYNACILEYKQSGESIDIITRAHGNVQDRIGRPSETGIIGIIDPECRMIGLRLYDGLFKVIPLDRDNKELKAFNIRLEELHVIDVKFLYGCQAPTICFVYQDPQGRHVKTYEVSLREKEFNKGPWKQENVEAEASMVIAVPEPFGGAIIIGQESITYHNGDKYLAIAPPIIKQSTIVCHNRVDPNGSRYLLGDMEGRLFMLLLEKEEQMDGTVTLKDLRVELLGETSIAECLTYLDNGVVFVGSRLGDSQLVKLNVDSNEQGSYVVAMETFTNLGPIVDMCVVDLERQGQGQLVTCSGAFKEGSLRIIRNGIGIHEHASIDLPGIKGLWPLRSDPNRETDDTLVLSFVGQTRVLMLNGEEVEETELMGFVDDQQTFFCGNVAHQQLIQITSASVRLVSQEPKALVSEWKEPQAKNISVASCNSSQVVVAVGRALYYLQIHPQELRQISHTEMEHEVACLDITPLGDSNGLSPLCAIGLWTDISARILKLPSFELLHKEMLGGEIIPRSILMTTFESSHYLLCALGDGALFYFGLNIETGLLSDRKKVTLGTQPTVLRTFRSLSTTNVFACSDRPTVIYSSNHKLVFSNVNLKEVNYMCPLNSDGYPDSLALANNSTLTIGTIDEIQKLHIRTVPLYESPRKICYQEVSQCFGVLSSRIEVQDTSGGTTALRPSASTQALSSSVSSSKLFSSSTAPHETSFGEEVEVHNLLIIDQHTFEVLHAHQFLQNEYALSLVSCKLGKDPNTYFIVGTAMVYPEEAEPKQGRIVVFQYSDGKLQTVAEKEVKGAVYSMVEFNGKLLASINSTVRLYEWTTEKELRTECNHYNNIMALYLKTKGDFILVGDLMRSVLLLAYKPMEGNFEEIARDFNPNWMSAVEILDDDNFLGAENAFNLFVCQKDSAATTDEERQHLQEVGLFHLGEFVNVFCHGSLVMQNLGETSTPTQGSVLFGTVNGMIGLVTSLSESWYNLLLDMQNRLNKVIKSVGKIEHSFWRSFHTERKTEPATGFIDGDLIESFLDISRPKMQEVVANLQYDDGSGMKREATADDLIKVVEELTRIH
Method: (§1) WIZ Assay and ZBTB7A EC50 Assays. The HiBiT degradation assays for WIZ and ZBTB7A in HUDEP-2 cells were performed as described below. HUDEP-2 cells engineered to express a HiBiT tag in either the WIZ (Widely interspaced zinc finger) or ZBTB7A (Zinc Finger And BTB Domain Containing 7A) proteins were maintained in low attachment flasks in StemSpan SFEM II media supplemented with Penicillin-Streptomycin (50 U/mL), rhSCF (50 ng/mL), rhEPO (3 IU/mL), dexamethasone (0.4 μg/mL) and doxycycline (1 μg/mL). Prior to start of the assay, cell count and viability were measured by trypan blue exclusion using the Vi-cell XR cell viability analyzer.
For the HUDEP-2 ZBTB7A HiBiT assay, cell count and viability were measured by trypan blue exclusion using the Vi-cell XR cell viability analyzer and the cells were transferred to a 50 mL conical and centrifuged at 500 g for five minutes. Cells were resuspended in fresh IMDM media supplemented with L-Glutamine (1×), Penicillin-Streptomycin (50 U/mL), holo-transferrin (330 μg/mL), heparin (2 IU/mL), r-human Insulin (10 μg/mL), rhEPO (3 IU/mL), rhSCF (100 ng/mL)+Dox (1 μg/mL) and 5% human plasma in low attachment flasks, which were placed in a 37° C. incubator with 5% CO2. After 48 hours, cell count and viability were measured by trypan blue exclusion using the Vi-cell XR cell viability analyzer. The HUDEP-2 ZBTB7A cells were transferred to a 50 mL conical, centrifuged at 500 g for five minutes and resuspended at a density of 1.0×10^6 cells/ml in IMDM media supplemented with L-Glutamine (1×), Penicillin-Streptomycin (50 U/mL), holo-transferrin (330 μg/mL), heparin (2 IU/mL), r-human Insulin (10 μg/mL), rhEPO (3 IU/mL), rhSCF (100 ng/mL)+Dox (1 μg/mL) and 5% human plasma. Forty microliters of cell suspension was dispensed into 384-well Low Flange White Flat Bottom Polystyrene TC-treated Microplates containing pre-dispensed compounds, using a VIAFLO 384 liquid hander, and placed in a 37° C. incubator with 5% CO2. […] After 24 hours of treatment, 40 μL Nano-Glo HiBiT Lytic Detection System reagent was dispensed into each well using a VIAFLO 384 liquid hander. Plates were incubated for 25 minutes at room temperature and the luminescence was read as relative luminescent units using the EnVision plate reader. EC50 and Y-min values were calculated using curves calculated from dotmatics software after the normalization to the DMSO control of 10 different concentrations: 10, 3.33, 1.11, 0.37, 0.12, 0.04 0.0137, 0.0046, 0.0015 and […] respectively.

WIZ = target: T2, WIZ (Homo sapiens, UniProt O95785+Q96SW2); experiment: HUDEP-2 WIZ HiBiT degradation assay; details: HiBiT-tagged WIZ degradation in HUDEP-2 cells, 24 hours of treatment; read-out: WIZ EC50
T2 construct: HUDEP-2 cells engineered to express a HiBiT tag in either the WIZ (Widely interspaced zinc finger) or ZBTB7A
T2 sequence (O95785 whole entry): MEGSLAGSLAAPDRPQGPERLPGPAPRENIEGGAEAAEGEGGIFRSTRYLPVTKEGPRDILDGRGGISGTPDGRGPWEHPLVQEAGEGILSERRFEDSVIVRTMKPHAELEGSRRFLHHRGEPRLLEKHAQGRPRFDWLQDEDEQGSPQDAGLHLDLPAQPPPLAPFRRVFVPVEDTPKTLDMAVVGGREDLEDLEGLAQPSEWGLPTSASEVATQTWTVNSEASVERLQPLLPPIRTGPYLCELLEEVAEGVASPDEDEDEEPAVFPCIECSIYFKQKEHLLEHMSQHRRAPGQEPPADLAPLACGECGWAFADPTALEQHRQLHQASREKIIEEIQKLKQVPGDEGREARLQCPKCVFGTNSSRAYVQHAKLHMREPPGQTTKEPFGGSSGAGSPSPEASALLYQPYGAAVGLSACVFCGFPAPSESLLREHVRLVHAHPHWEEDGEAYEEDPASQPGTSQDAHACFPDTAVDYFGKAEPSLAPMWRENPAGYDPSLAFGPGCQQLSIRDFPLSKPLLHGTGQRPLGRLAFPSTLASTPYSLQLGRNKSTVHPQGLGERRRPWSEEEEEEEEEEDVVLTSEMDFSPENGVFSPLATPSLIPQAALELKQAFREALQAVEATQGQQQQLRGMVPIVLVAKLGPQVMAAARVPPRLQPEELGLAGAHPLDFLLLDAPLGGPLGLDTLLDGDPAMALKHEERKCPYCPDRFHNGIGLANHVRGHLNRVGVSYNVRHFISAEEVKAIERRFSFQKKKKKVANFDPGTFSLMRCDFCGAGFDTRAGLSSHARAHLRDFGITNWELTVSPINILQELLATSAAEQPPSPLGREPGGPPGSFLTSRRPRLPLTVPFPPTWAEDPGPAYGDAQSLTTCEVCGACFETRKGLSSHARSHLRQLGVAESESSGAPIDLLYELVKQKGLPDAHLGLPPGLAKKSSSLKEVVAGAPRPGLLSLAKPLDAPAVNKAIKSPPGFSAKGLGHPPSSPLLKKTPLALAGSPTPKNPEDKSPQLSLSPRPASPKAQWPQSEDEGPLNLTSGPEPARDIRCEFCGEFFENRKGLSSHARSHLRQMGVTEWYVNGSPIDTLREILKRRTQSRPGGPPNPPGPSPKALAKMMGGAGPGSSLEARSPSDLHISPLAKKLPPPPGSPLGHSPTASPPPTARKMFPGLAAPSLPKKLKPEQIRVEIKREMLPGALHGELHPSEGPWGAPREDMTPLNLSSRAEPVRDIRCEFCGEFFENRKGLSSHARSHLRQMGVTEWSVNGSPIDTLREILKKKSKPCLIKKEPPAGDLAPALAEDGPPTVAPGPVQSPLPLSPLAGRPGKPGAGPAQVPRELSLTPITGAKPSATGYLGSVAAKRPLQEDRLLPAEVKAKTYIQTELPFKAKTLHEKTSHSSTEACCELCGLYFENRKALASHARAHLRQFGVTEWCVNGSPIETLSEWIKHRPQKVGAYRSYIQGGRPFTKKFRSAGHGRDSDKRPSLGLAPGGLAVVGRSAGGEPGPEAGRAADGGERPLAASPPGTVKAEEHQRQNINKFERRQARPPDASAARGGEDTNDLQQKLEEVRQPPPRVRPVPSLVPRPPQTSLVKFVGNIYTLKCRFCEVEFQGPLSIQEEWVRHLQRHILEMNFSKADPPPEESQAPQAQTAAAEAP
T2 sequence (Q96SW2 whole entry): as the sequence (Q96SW2 whole entry) above
T2 sequence (Q16531 whole entry partner): as the sequence (Q16531 whole entry partner) above
Method: as §1
For the HUDEP-2 WIZ HiBiT assay, cells were transferred to a 50 mL conical and centrifuged at 500 g for five minutes. Cells were resuspended in fresh StemSpan SFEM II media supplemented with Penicillin-Streptomycin (50 U/mL), rhSCF (50 ng/mL), rhEPO (3 IU/mL), dexamethasone (0.4 μg/mL) and doxycycline (1 μg/mL) at a density of 1.0×10^6 cells/ml. Forty microliters of cell suspension was dispensed into 384-well Low Flange White Flat Bottom Polystyrene TC-treated Microplates containing pre-dispensed compounds, using a VIAFLO 384 liquid hander, and placed in a 37° C. incubator with 5% CO2. […] After 24 hours of treatment, 40 μL Nano-Glo HiBiT Lytic Detection System reagent was dispensed into each well using a VIAFLO 384 liquid hander. Plates were incubated for 25 minutes at room temperature and the luminescence was read as relative luminescent units using the EnVision plate reader. EC50 and Y-min values were calculated using curves calculated from dotmatics software after the normalization to the DMSO control of 10 different concentrations: 10, 3.33, 1.11, 0.37, 0.12, 0.04 0.0137, 0.0046, 0.0015 and […] respectively.

HbF = HbF HiBiT induction assay in HUDEP-2 cells; details: HUDEP-2 cells with HiBiT tag in HBG1/2, 72 hours of treatment; area under the dose response curve, higher AUC = greater HbF induction
Method: HbF HiBiT induction assay. The HiBiT induction assay for HbF in HUDEP-2 cells was performed as described below. HUDEP-2 cells engineered to express a HiBiT tag in HBG1/2 were maintained at a density of 0.1-1×10^6 cells/ml in StemSpan SFEM II supplemented with 1% penicillin/streptomycin, hSCF (50 ng/mL), erythropoietin (EPO; 3 IU/mL), dexamethasone (DEX; 0.4 μg/mL), and doxycycline hyclate (DOX; 1 μg/mL). The cells were cultured in low adherence flasks, in a humidified incubator, set at 37° C. with 5% CO2. Cell counts and viability were measured by trypan blue exclusion using the Vi-CELL XR cell viability analyzer and the cell growth was consistently maintained in log phase.
Prior to the start of experiments, HbF HiBiT-tagged HUDEP-2 cells were transferred to a 50 mL conical and centrifuged at 500×g for 5 minutes, the supernatant removed, and the pellet washed in 5 mL of 1×PBS. The washed cells were centrifuged again at 500×g for 5 minutes and resuspended in IMDM containing; 1×glutamine, 1×penicillin/streptomycin, holo-transferrin (330 μg/mL), heparin (2 IU/mL), r-human insulin (10 μg/mL), EPO (3 IU/mL), 5% human plasma, hSCF (100 ng/mL) and DOX (1 μg/mL) to a final density of 0.3×10^6 cells/mL. Forty microliters of cell suspension were dispensed into 384-well Low Flange White Flat Bottom Polystyrene TC-treated Microplates containing pre-dispensed compounds, using a VIAFLO 384 liquid hander, and placed in a humidified incubator at 37° C. with 5% CO2. […] After 72 hours of treatment, 40 μL of Nano-Glo HiBiT Lytic Solution (prepared according to manufacturer's instructions) were dispensed into each well using a VIAFLO 384 liquid handler, and the plates were shaken for 20 seconds. Plates were incubated for 20 minutes at room temperature, and the luminescence was read as relative luminescent units using an EnVision plate reader.
Dose response curves were generated, and EC50, Ymax, and then area under the curve (AUC) values were calculated. HbF induction was measured using the calculated area under the curve (AUC) value, with higher AUC values indicative of greater HbF induction relative to lower AUC values.

Row | SMILES | DC50 (ZBTB7A) | DC50 (WIZ) | HBF AUC (HbF)
1 | COc1cc(-c2cc3c(cc2Nc2cccc4c2C(=O)N([C@H]2CCC(=O)NC2=O)C4=O)N(C)C(=O)CO3)c(F)cn1 [Compound 28, (S)-2-(2,6-dioxopiperidin-3-yl)-4-((7-(5-fluoro-2-methoxypyridin-4-yl)-4-methyl-3-oxo-3,4-dihydro-2H-benzo[b][1,4]oxazin-6-yl)amino)isoindoline-1,3-dione] | 13 nM | 11 nM | +++ (+++ = AUC ≥ 150)
2 | COc1ccc(-c2cc3c(cc2Nc2cccc4c2C(=O)N([C@H]2CCC(=O)NC2=O)C4=O)N(C)C(=O)[C@H](C)O3)cn1 [Compound 40, 2-((S)-2,6-dioxopiperidin-3-yl)-4-(((S)-7-(6-methoxypyridin-3-yl)-2,4-dimethyl-3-oxo-3,4-dihydro-2H-benzo[b][1,4]oxazin-6-yl)amino)isoindoline-1,3-dione] | 16 nM | 12 nM | + (+ = 15 ≤ AUC < 100)
3 | CC(=O)N1CCC(c2cc3c(cc2Nc2cccc4c2C(=O)N([C@H]2CCC(=O)NC2=O)C4=O)N(C)C(=O)[C@@H](C)O3)CC1 [Compound 32, 4-(((R)-7-(1-acetylpiperidin-4-yl)-2,4-dimethyl-3-oxo-3,4-dihydro-2H-benzo[b][1,4]oxazin-6-yl)amino)-2-((S)-2,6-dioxopiperidin-3-yl)isoindoline-1,3-dione] | 14 nM | 5 nM | +++ (+++ = AUC ≥ 150)
4 | CCO[C@H]1CC[C@H](c2cc3c(cc2Nc2cccc4c2C(=O)N([C@H]2CCC(=O)NC2=O)C4=O)N(C)C(=O)[C@@H](C)O3)CC1 [Compound 45, 2-((S)-2,6-dioxopiperidin-3-yl)-4-(((R)-7-((1r,4R)-4-ethoxycyclohexyl)-2,4-dimethyl-3-oxo-3,4-dihydro-2H-benzo[b][1,4]oxazin-6-yl)amino)isoindoline-1,3-dione] | 10 nM | 6 nM | ++ (++ = 100 ≤ AUC < 150)
5 | Cc1cc(-c2cc3c(cc2Nc2cccc4c2C(=O)N(C2CCC(=O)NC2=O)C4=O)N(C)C(=S)CC3)ccn1 (stereo not drawn) [Compound 19, 2-(2,6-dioxopiperidin-3-yl)-4-((1-methyl-6-(2-methylpyridin-4-yl)-2-thioxo-1,2,3,4-tetrahydroquinolin-7-yl)amino)isoindoline-1,3-dione] | 21 nM | 28 nM | ++ (++ = 100 ≤ AUC < 150)
6 | CCO[C@H]1CC[C@H](c2cc3c(cc2Nc2cccc4c2C(=O)N([C@H]2CCC(=O)NC2=O)C4=O)N(C)C(=O)CO3)CC1 [Compound 44, 2-((S)-2,6-dioxopiperidin-3-yl)-4-((7-((1r,4S)-4-ethoxycyclohexyl)-4-methyl-3-oxo-3,4-dihydro-2H-benzo[b][1,4]oxazin-6-yl)amino)isoindoline-1,3-dione] | 6 nM | 4 nM | ++ (++ = 100 ≤ AUC < 150)
7 | Cc1cc(-c2cc3c(cc2Nc2cccc4c2C(=O)N([C@H]2CCC(=O)NC2=O)C4=O)N(C)C(=O)[C@@H](C)O3)c(F)cn1 [Compound 27, 2-((S)-2,6-dioxopiperidin-3-yl)-4-(((R)-7-(5-fluoro-2-methylpyridin-4-yl)-2,4-dimethyl-3-oxo-3,4-dihydro-2H-benzo[b][1,4]oxazin-6-yl)amino)isoindoline-1,3-dione] | 11 nM | 6 nM | + (+ = 15 ≤ AUC < 100)
8 | Cc1cncc(-c2cc3c(cc2Nc2cccc4c2C(=O)N([C@H]2CCC(=O)NC2=O)C4=O)N(C)C(=O)[C@H](C)O3)c1 [Compound 43, 4-(((S)-2,4-dimethyl-7-(5-methylpyridin-3-yl)-3-oxo-3,4-dihydro-2H-benzo[b][1,4]oxazin-6-yl)amino)-2-((S)-2,6-dioxopiperidin-3-yl)isoindoline-1,3-dione] | 24 nM | 15 nM | ++ (++ = 100 ≤ AUC < 150)
9 | COc1ccc(-c2cc3c(cc2Nc2cccc4c2C(=O)N([C@H]2CCC(=O)NC2=O)C4=O)N(C)C(=O)CO3)cn1 [Compound 38, (S)-2-(2,6-dioxopiperidin-3-yl)-4-((7-(6-methoxypyridin-3-yl)-4-methyl-3-oxo-3,4-dihydro-2H-benzo[b][1,4]oxazin-6-yl)amino)isoindoline-1,3-dione] | 13 nM | 14 nM | ++ (++ = 100 ≤ AUC < 150)
10 | Cc1cc(-c2c(Nc3cccc4c3C(=O)N([C@H]3CCC(=O)NC3=O)C4=O)cc3c(c2F)CCC(=O)N3C)ccn1 [Compound 90, (S)-2-(2,6-dioxopiperidin-3-yl)-4-((5-fluoro-1-methyl-6-(2-methylpyridin-4-yl)-2-oxo-1,2,3,4-tetrahydroquinolin-7-yl)amino)isoindoline-1,3-dione] | 24 nM | 14 nM | ++ (++ = 100 ≤ AUC < 150)
11 | COc1nccc(-c2cc3c(cc2Nc2cccc4c2C(=O)N([C@H]2CCC(=O)NC2=O)C4=O)N(C)C(=O)[C@H](C)O3)c1F [Compound 35, 2-((S)-2,6-dioxopiperidin-3-yl)-4-(((S)-7-(3-fluoro-2-methoxypyridin-4-yl)-2,4-dimethyl-3-oxo-3,4-dihydro-2H-benzo[b][1,4]oxazin-6-yl)amino)isoindoline-1,3-dione] | 8 nM | 11 nM | + (+ = 15 ≤ AUC < 100)
